Data taken from US5604262A, “Topical antimicrobial agents” (Research Corporation Technologies, Inc., priority 1995, dated 1997).
Converted amounts (≈) assume the structure as drawn.

How the values were obtained:
[1] = system: fungi; details: Moleyar et al. 1986; cited from earlier work
[2] = system: Candia utilis ATCC 9226; experiment: MIC by two-fold serial broth dilution; format: cell-based, Candida utilis; details: C. utilis; for MIC: Williopsis jadinii, ATCC9226, 48 h, malt extract broth, two days, turbidity OD 660 nm
From the text: (§1) The microorganisms tested were from the American Type Culture Collection (Rockville, Md.). They are Bacillus subtilis ATCC 9372, Brevibacterium ammoniagenes ATCC 6872, Staphylococcus aureus ATCC 12598, Streptococus mutans ATCC 25175, Propionibacterium acnes ATCC 11827, Pseudimonas aeruginosa ATCC 10145, Enterobacter aerogenes ATCC 13048, Eschericia coli ATCC 9637, Proteus vulgaris ATCC […], Saccharomyces cerevisiae ATCC 7754, Candida utilis ATCC 9226, Pityrosporum ovale ATCC 14521, Penicillium chrysogenum ATCC 10106 and Trichophyton mentagrophytes ATCC 18748.
(§2) The bacterial culture media except for S. mutans was 0.8% nutrient broth (BBL), 0.5% yeast Extract (Difco) and 0.1% glucose (NYG broth). S. mutans was cultured in 3.7% brain heart infixsion broth (Difco). All fungi, except P. ovale and T. mentagrophytes were cultured in a 2.5% malt extract broth (BBL). P. ovale was cultured in 1% bactopeptone (Difco), 0.5% yeast extract, 1% glucose and 0.1% corn oil. For T. mentagrophytes the culture media was 1% bactopeptone and 4% glucose.
(§3) Freeze dried samples were prepared for testing as follows. B. subtilis, S. cerevisiae, C. utilis, and P. ovale, were shake-cultured for two days at 30° C. P. chrysogenum and T. mentagrophytes were shake-cultured for 5 days at 30° C. B. ammoniagenes and E. aerogenes were stationarily cultured at 30° C. S. aureus, S. mutans, P. acnes, P. aeruginosa, E. coli and P. vulgaris were stationarily cultured at 37° C.
(§4) The minimum inhibitory concentration (MIC) of the 3-alken-2-ones (compounds 1-4, 6-8) and 3,13-tetradecadien-2-one (compound 5) was performed using a two-fold serial broth dilution. Each test compound was dissolved in DMF and 30 μL of this sample was dissolved in 3 mL of the applicable medium. A 30 μL sample of the previously described culture of each microorganism was added to the various medium solutions. After two days, the cultures of B. subtilis, S. cerevisiae, C. utilis B. ammoniagenes, E. aerogenes, S. aureus, S. mutans, P. acnes, P. aeruginosa, E. coli and P. vulgaris were examined for turbidity (OD at 660 nm). The fungi, P. ovale, P. chrysogenum and T. mentagrophytes, were examined visually for growth at 3 days (P. ovale) and 5 days (P. chrysogenum and T. mentagrophytes). The MIC was determined as the lowest concentration for each compound that no growth was observed. The highest concentration used in these tests was 800 μg/mL.

[3] = system: Bacillus subtilis ATCC 9372; experiment: MIC by two-fold serial broth dilution; format: cell-based; details: B. subtilis; for MIC: Bacillus subtilis, ATCC9372, 48 h, NYG broth, two days, turbidity OD 660 nm
From the text: as §1, §2, §3, §4

[4] = system: Saccharomyces cerevisiae ATCC 7754; experiment: MIC by two-fold serial broth dilution; format: cell-based; details: S. cerevisiae; for MIC: Saccharomyces cerevisiae, ATCC7754, 48 h, malt extract broth, two days, turbidity OD 660 nm
From the text: as §1, §2, §3, §4

[5] = system: Enterobacter aerogenes ATCC 13048; experiment: MIC by two-fold serial broth dilution; format: cell-based; details: E. aerogenes; for MIC: Klebsiella aerogenes, ATCC13048, 48 h, NYG broth, two days, turbidity OD 660 nm
From the text: as §1, §2, §3, §4

[6] = system: Eschericia coli ATCC 9637; experiment: MIC by two-fold serial broth dilution; format: cell-based; details: E. coli; for MIC: Escherichia coli, ATCC9637, 48 h, NYG broth, two days, turbidity OD 660 nm
From the text: as §1, §2, §3, §4

[7] = system: Proteus vulgaris ATCC 133315; experiment: MIC by two-fold serial broth dilution; format: cell-based; details: ATCC133315, 48 h, P. vulgaris, NYG broth, two days, turbidity OD 660 nm
From the text: as §1, §2, §3, §4

[8] = system: Propionibacterium acnes ATCC 11827; experiment: MIC by two-fold serial broth dilution; format: cell-based; details: P. acnes; for MIC: Cutibacterium acnes, ATCC11827, 48 h, NYG broth, two days, turbidity OD 660 nm
From the text: as §1, §2, §3, §4

[9] = system: Staphylococcus aureus ATCC 12598; experiment: MIC by two-fold serial broth dilution; format: cell-based; details: S. aureus; for MIC: Staphylococcus aureus, ATCC12598, 48 h, NYG broth, two days, turbidity OD 660 nm
From the text: as §1, §2, §3, §4

[10] = system: Pityrosporum ovale ATCC 14521; experiment: MIC by two-fold serial broth dilution; format: cell-based; details: P. ovale; for MIC: 72 h, bactopeptone/yeast extract/glucose/corn oil, 3 days, visual
From the text: as §1, §2, §3, §4

[11] = system: Brevibacterium ammoniagenes ATCC 6872; experiment: MIC by two-fold serial broth dilution; format: cell-based; details: B. ammoniagenes; for MIC: Corynebacterium ammoniagenes, ATCC6872, 48 h, NYG broth, two days, turbidity OD 660 nm
From the text: as §1, §2, §3, §4

[12] = system: Trichophyton mentagrophytes ATCC 18748; experiment: MIC by two-fold serial broth dilution; format: cell-based; details: ATCC18748, 120 h, T. mentagrophytes, bactopeptone/glucose, 5 days, visual
From the text: as §1, §2, §3, §4

[13] = system: Streptococus mutans ATCC 25175; experiment: MIC by two-fold serial broth dilution; format: cell-based; details: S. mutans; for MIC: Streptococcus mutans, ATCC25175, 48 h, brain heart infusion broth, two days, turbidity OD 660 nm
From the text: as §1, §2, §3, §4

[14] = system: Pseudimonas aeruginosa ATCC 10145; experiment: MIC by two-fold serial broth dilution; format: cell-based; details: P. aeruginosa; for MIC: Pseudomonas aeruginosa, ATCC10145, 48 h, NYG broth, two days, turbidity OD 660 nm
From the text: as §1, §2, §3, §4

[15] = system: Penicillium chrysogenum ATCC 10106; experiment: MIC by two-fold serial broth dilution; format: cell-based; details: P. chrysogenum; for MIC: Penicillium chrysogenum, ATCC10106, 120 h, malt extract broth, 5 days, visual
From the text: as §1, §2, §3, §4

[16] = system: bacteria and fungi in the test, except S. mutans and P. acnes; experiment: MIC test, all bacteria and fungi except S. mutans and P. acnes; format: cell-based; details: all of the bacteria and fungi in the test
From the text: as §1, §2
Freeze dried samples were prepared for testing as follows. […]
The minimum inhibitory concentration (MIC) of the 3-alken-2-ones (compounds 1-4, 6-8) and 3,13-tetradecadien-2-one (compound 5) was performed using a two-fold serial broth dilution. […] The MIC was determined as the lowest concentration for each compound that no growth was observed. […]

[17] = system: Pr. acnes; details: Kubo et al. 1994; cited from earlier work
[18] = system: S. mutans; details: Kubo et al. 1993; cited from earlier work
[19] = background statement; cited from earlier work

| Compound | MIC [2] [µg/mL] | MIC [3] [µg/mL] | MIC [4] [µg/mL] | MIC [5] [µg/mL] | MIC [6] [µg/mL] | MIC [7] [µg/mL] | MIC [8] [µg/mL] | MIC [9] [µg/mL] | MIC [10] [µg/mL] | MIC [11] [µg/mL] | MIC [12] [µg/mL] | MIC [13] [µg/mL] | MIC [14] [µg/mL] | MIC [15] [µg/mL] | further results |
| --- | --- | --- | --- | --- | --- | --- | --- | --- | --- | --- | --- | --- | --- | --- | --- |
| C=C(C)C1CC=C(C)C(=O)C1 (centres unmarked) [Carvone] | – | – | – | – | – | – | – | – | – | – | – | – | – | – | antifungal activity (in words) [1]: antifungal activity |
| CCCCCCC/C=C/C(C)=O [Compound 1, (E)-3-Undecen-2-one] | 50 (≈ 297 µM) | 100 (≈ 594 µM) | 800 (≈ 4750 µM) | > 800 | > 800 | 50 (≈ 297 µM) | 50 (≈ 297 µM) | 200 (≈ 1190 µM) | 100 (≈ 594 µM) | 200 (≈ 1190 µM) | 100 (≈ 594 µM) | 100 (≈ 594 µM) | > 800 | 100 (≈ 594 µM) | – |
| CCCCCCCC/C=C/C(C)=O [Compound 2, (E)-3-Dodecen-2-one] | 400 (≈ 2190 µM) | 100 (≈ 549 µM) | 800 (≈ 4390 µM) | > 800 | > 800 | 50 (≈ 274 µM) | 25 (≈ 137 µM) | 100 (≈ 549 µM) | 100 (≈ 549 µM) | 100 (≈ 549 µM) | 100 (≈ 549 µM) | 50 (≈ 274 µM) | > 800 | 100 (≈ 549 µM) | – |
| CCCCCCCCC/C=C/C(C)=O [Compound 3, (E)-3-Tridecen-2-one] | > 800 | 100 (≈ 509 µM) | > 800 | > 800 | > 800 | 800 (≈ 4070 µM) | 12.5 (≈ 63.7 µM) | 50 (≈ 255 µM) | 100 (≈ 509 µM) | 100 (≈ 509 µM) | 25 (≈ 127 µM) | 25 (≈ 127 µM) | > 800 | 800 (≈ 4070 µM) | activity (in words) [2]: no activity; activity (in words) [3]: showed activity; activity (in words) [4]: no activity; activity (in words) [5]: not active; activity (in words) [6]: not active; activity (in words) [8]: showed activity; activity (in words) [9]: showed activity; activity (in words) [10]: moderate inhibition; activity (in words) [11]: showed activity; activity (in words) [13]: showed activity; activity (in words) [14]: not active; activity (in words) [15]: Weak activity |
| CCCCCCCCCC/C=C/C(C)=O [Compound 4, (E)-3-Tetradecen-2-one] | > 800 | > 800 | > 800 | > 800 | > 800 | > 800 | 12.5 (≈ 59.4 µM) | > 800 | 100 (≈ 475 µM) | > 800 | 12.5 (≈ 59.4 µM) | 25 (≈ 119 µM) | > 800 | 800 (≈ 3800 µM) | activity (in words) [2]: no activity; activity (in words) [4]: no activity; activity (in words) [5]: not active; activity (in words) [6]: not active; activity (in words) [8]: showed activity; activity (in words) [10]: moderate inhibition; activity (in words) [13]: showed activity; activity (in words) [14]: not active; activity (in words) [15]: Weak activity |
| C=CCCCCCCCC/C=C/C(C)=O [Compound 5, (E)-3,13-Tetradecadien-2-one] | > 800 | > 800 | > 800 | > 800 | > 800 | > 800 | 12.5 (≈ 60 µM) | > 800 | 200 (≈ 960 µM) | > 800 | 12.5 (≈ 60 µM) | 25 (≈ 120 µM) | > 800 | 800 (≈ 3840 µM) | – |
| CCCCCCCCCCC/C=C/C(C)=O [Compound 6, (E)-3-Pentadecen-2-one] | > 800 | > 800 | > 800 | > 800 | > 800 | > 800 | 6.25 (≈ 27.9 µM) | > 800 | 400 (≈ 1780 µM) | > 800 | 800 (≈ 3570 µM) | 200 (≈ 891 µM) | > 800 | > 800 | – |
| CCCCCCCCCCCC/C=C/C(C)=O [Compound 7, (E)-3-Hexadecen-2-one] | > 800 | > 800 | > 800 | > 800 | > 800 | > 800 | 3.13 (≈ 13.1 µM) | > 800 | > 800 | > 800 | > 800 | 400 (≈ 1680 µM) | > 800 | > 800 | activity (in words) [8]: strong activity; activity (in words) [13]: weakly active; activity (in words) [16]: inactive |
| CCCCCCCCCCCCC/C=C/C(C)=O [Compound 8, (E)-3-Heptadecen-2-one] | > 800 | > 800 | > 800 | > 800 | > 800 | > 800 | 3.13 (≈ 12.4 µM) | > 800 | > 800 | > 800 | > 800 | 800 (≈ 3170 µM) | > 800 | > 800 | activity (in words) [8]: strong activity; activity (in words) [16]: inactive |
| CC(C)=CCCC(C)=CCCC(C)=CCO [farnesol] | – | – | – | – | – | – | – | – | – | – | – | – | – | – | activity against Pr. acnes (in words) [17]: exhibited activity |
| CC(C)=CCCC(C)=CCCC(C)=CCCC(C)O (centres unmarked) [farnesyl acetol] | – | – | – | – | – | – | – | – | – | – | – | – | – | – | activity against Pr. acnes (in words) [17]: exhibited activity |
| CC(=O)CCC=C(C)CCC=C(C)CCC=C(C)C [farnesylacetone] | – | – | – | – | – | – | – | – | – | – | – | – | – | – | activity against Pr. acnes (in words) [17]: inactive |
| CC(C)=CCCC(C)=CCCC(C)O (centres unmarked) [geranylacetol] | – | – | – | – | – | – | – | – | – | – | – | – | – | – | activity against Pr. acnes (in words) [17]: exhibited activity |
| CC(=O)/C=C/C1C(C)=CCCC1(C)C (stereo not drawn) [α-ionone] | – | – | – | – | – | – | – | – | – | – | – | – | – | – | antibacterial activity (in words) [18]: moderate antibacterial activity |
| CC(=O)/C=C/C1=C(C)CCCC1(C)C [β-ionone] | – | – | – | – | – | – | – | – | – | – | – | – | – | – | antibacterial activity (in words) [18]: moderate antibacterial activity |
| ionone | – | – | – | – | – | – | – | – | – | – | – | – | – | – | allergic skin reactions [19]: can cause allergic skin reactions |
